Counter-ions that a name gives are not always drawn.
Test system: hPSC-SCs
Settings: not given

Going from NCCc1c[nH]c2ccc(O)cc12 [Serotonin hydrochloride] to CCCCNc1ccc(C(=O)OCCN(C)C)cc1.Cl [TetracaÂ<ne hydrochloride], the z.score.t rises from −1.195 to −0.2276.

Going from C[C@@H]1CC[C@@]2(NC1)O[C@H]1C[C@H]3[C@@H]4CC=C5C[C@@H](O)CC[C@]5(C)[C@H]4CC[C@]3(C)[C@H]1[C@@H]2C [Solasodine] to CCC(=O)O[C@H]1CC[C@H]2[C@@H]3CCC4=CC(=O)CC[C@]4(C)[C@H]3CC[C@]12C [Testosterone propionate], the z.score.t falls from 0.9178 to −1.014.

First: C1CCN2C[C@@H]3C[C@@H](CN4CCCC[C@@H]34)[C@H]2C1 [Sparteine (−)]
Second: C[C@]12CC[C@H]3[C@@H](CC[C@]4(O)C[C@@H](O)CC[C@]34C=O)[C@@]1(O)CC[C@@H]2C1=CC(=O)OC1 [Strophanthidin]
The z.score.t of the first is higher: 0.1131 for the first, −2.4 for the second.

Going from C[C@@H]1O[C@@H](O[C@H]2C[C@@H](O)[C@]3(CO)[C@H]4[C@H](O)C[C@]5(C)[C@@H](C6=CC(=O)OC6)CC[C@]5(O)[C@@H]4CC[C@]3(O)C2)[C@H](O)[C@H](O)[C@H]1O.O.O.O.O.O.O.O.O [Strophantine octahydrate] to COc1c(O[C@@H]2O[C@H](CO)[C@@H](O)[C@H](O)[C@H]2O)cc2c(c1OC)-c1ccc(SC)c(=O)cc1[C@@H](NC(C)=O)CC2 [Thiocolchicoside], the z.score.t rises from −2.04 to 1.11.

Going from Cl.O=c1[nH]oc2c1CCNC2 [THIP Hydrochloride] to Cn1c(=O)c2[nH]cnc2n(C)c1=O.O [Theophylline monohydrate], the z.score.t falls from 0.9162 to −1.123.

Same assay, conditions: HTS viability of hPSC-SCs in the presence of 30 mM glucose; Prestwick library; Table S4

Going from Clc1ccc(C(Cn2ccnc2)OCc2csc3c(Cl)cccc23)c(Cl)c1 (stereo not shown) [Sertaconazole nitrate] to Clc1ccc(CSC(Cn2ccnc2)c2ccc(Cl)cc2Cl)cc1 (stereo not shown) [Sulconazole nitrate], the z.score.t rises from −1.558 to −0.2136.

Compared with CN[C@H]1CC[C@@H](c2ccc(Cl)c(Cl)c2)c2ccccc21 [Sertraline], CSc1ccc2c(c1)N(CCC1CCCCN1C)c1ccccc1S2 (stereo not shown) [Thioridazine hydrochloride] is lower in z.score.t: −1.388 for the first, −1.898 for the second.

First: CCC(C)(C)C(=O)O[C@H]1C[C@@H](C)C=C2C=C[C@H](C)[C@H](CC[C@@H]3C[C@@H](O)CC(=O)O3)[C@H]21 [Simvastatin]
Second: CN[C@@H]1[C@H](O)[C@H](NC)[C@H]2O[C@@]3(O)C(=O)C[C@@H](C)O[C@H]3O[C@@H]2[C@H]1O [Spectinomycin dihydrochloride]
The z.score.t of the first is lower: −0.9395 for the first, 1.101 for the second.

First: CN[C@@H]1[C@@H](O)[C@@H](O[C@@H]2[C@@H](O)[C@H](O[C@H]3OC(CN)=CC[C@H]3N)[C@@H](N)C[C@H]2N)OC[C@]1(C)O [Sisomicin sulfate]
Second: [H]/N=C(/N)N[C@H]1[C@H](O)[C@@H](O)[C@H](O[C@@H]2O[C@@H](C)[C@](O)(C=O)[C@H]2O[C@@H]2O[C@@H](CO)[C@H](O)[C@@H](O)[C@@H]2NC)[C@@H](N/C(N)=N\[H])[C@@H]1O [Streptomycin sulfate]
The z.score.t of the first is higher: −0.3319 for the first, −1.359 for the second.

Compared with COc1ccc2c(OC)c3ccoc3nc2c1OC [Skimmianine], COc1ncnc(NS(=O)(=O)c2ccc(N)cc2)c1OC [Sulfadoxine] is higher in z.score.t: −0.7376 for the first, 0.8015 for the second.

First: CC(C)NCC(O)c1ccc(NS(C)(=O)=O)cc1 (stereo not shown) [Sotalol hydrochloride]
Second: CS(=O)(=O)c1ccc([C@@H](O)[C@@H](CO)NC(=O)C(Cl)Cl)cc1 [Thiamphenicol]
The z.score.t of the first is lower: −1.056 for the first, 1.099 for the second.

First: CC(=O)N[C@@H](CC(=O)N[C@@H](CCC(=O)O)C(=O)O)C(=O)O [Spaglumic acid]
Second: O=C(O)CCC(=O)Nc1ccc(S(=O)(=O)Nc2nccs2)cc1 [Succinylsulfathiazole]
The z.score.t of the first is higher: 2.046 for the first, −0.6792 for the second.

First: O=C(CCCN1CCC2(CC1)C(=O)NCN2c1ccccc1)c1ccc(F)cc1 [Spiperone]
Second: CCCCC1(COC(=O)CCC(=O)O)C(=O)N(c2ccccc2)N(c2ccccc2)C1=O [Suxibuzone]
The z.score.t of the first is lower: 0.09999 for the first, 0.9352 for the second.

Going from CC(=O)S[C@@H]1CC2=CC(=O)CC[C@]2(C)[C@H]2CC[C@@]3(C)[C@@H](CC[C@@]34CCC(=O)O4)[C@H]12 [Spironolactone] to CN(C)[C@@H]1C(O)=C(C(N)=O)C(=O)[C@@]2(O)C(O)=C3C(=O)c4c(O)cccc4[C@@](C)(O)[C@H]3C[C@@H]12 [Tetracycline hydrochloride], the z.score.t falls from 0.05523 to −0.2425.

First: C[N+]1(C)CCC[C@H]1C(=O)[O-].Cl [Stachydrine hydrochloride]
Second: CCN1CCCC1CNC(=O)c1cc(S(N)(=O)=O)ccc1OC (stereo not shown) [Sulpiride]
The z.score.t of the first is lower: −0.8304 for the first, 0.1594 for the second.

First: Nc1ccc(S(=O)(=O)NC(=O)c2ccccc2)cc1 [Sulfabenzamide]
Second: Nc1ccc(S(=O)(=O)Nc2ccccn2)cc1 [Sulfapyridine]
The z.score.t of the first is lower: −0.9042 for the first, 1.853 for the second.

Compared with CC(=O)[N-]S(=O)(=O)c1ccc(N)cc1.O.[Na+] [Sulfacetamide sodic hydrate], Nc1ccc(S(N)(=O)=O)cc1 [Sulfanilamide] is lower in z.score.t: −0.2865 for the first, −0.4325 for the second.

Going from Nc1ccc(S(=O)(=O)Nc2ccc(Cl)nn2)cc1 [Sulfachloropyridazine] to COc1ccc(NS(=O)(=O)c2ccc(N)cc2)nn1 [Sulfamethoxypyridazine], the z.score.t rises from −0.1014 to 0.2139.

Going from Nc1ccc(S(=O)(=O)Nc2ncccn2)cc1 [Sulfadiazine] to Cc1ccnc(NS(=O)(=O)c2ccc(N)cc2)n1 [Sulfamerazine], the z.score.t falls from 0.5856 to 0.3022.

First: COc1cc(NS(=O)(=O)c2ccc(N)cc2)nc(OC)n1 [Sulfadimethoxine]
Second: COc1cc(NS(=O)(=O)c2ccc(N)cc2)ncn1 [Sulfamonomethoxine]
The z.score.t of the first is lower: 0.1469 for the first, 0.453 for the second.

Going from [H]/N=C(/N)NS(=O)(=O)c1ccc(N)cc1 [Sulfaguanidine] to Nc1ccc(S(=O)(=O)Nc2nccs2)cc1 [Sulfathiazole], the z.score.t rises from −0.2425 to 0.9109.

First: COc1cnc(NS(=O)(=O)c2ccc(N)cc2)nc1 [Sulfameter]
Second: Cc1cc(C)nc(NS(=O)(=O)c2ccc(N)cc2)n1 [Sulfamethazine sodium salt]
The z.score.t of the first is higher: 1.493 for the first, 0.3022 for the second.

First: Cc1nnc(NS(=O)(=O)c2ccc(N)cc2)s1 [Sulfamethizole]
Second: Cc1cc(NS(=O)(=O)c2ccc(N)cc2)no1 [Sulfamethoxazole]
The z.score.t of the first is higher: 1.132 for the first, 0.02534 for the second.

First: Nc1ccc(S(=O)(=O)Nc2ccnn2-c2ccccc2)cc1 [Sulfaphenazole]
Second: Nc1ccc(S(=O)(=O)Nc2cnc3ccccc3n2)cc1 [Sulfaquinoxaline sodium salt]
The z.score.t of the first is lower: 0.4626 for the first, 1.117 for the second.

Going from O=C(O)c1cc(/N=N/c2ccc(S(=O)(=O)Nc3ccccn3)cc2)ccc1O [Sulfasalazine] to CN1C(C(=O)Nc2ccccn2)=C(O)c2sccc2S1(=O)=O [Tenoxicam], the z.score.t rises from 0.1344 to 1.659.

Compared with O=C1C(CC[S+]([O-])c2ccccc2)C(=O)N(c2ccccc2)N1c1ccccc1 (stereo not shown) [Sulfinpyrazone], CC/C(=C(\c1ccccc1)c1ccc(OCCN(C)C)cc1)c1ccccc1 [Tamoxifen citrate] is lower in z.score.t: 0.3922 for the first, −1.827 for the second.

Going from Cc1noc(NS(=O)(=O)c2ccc(N)cc2)c1C [Sulfisoxazole] to COc1cc([S+](C)[O-])ccc1-c1nc2ncccc2[nH]1 (stereo not shown) [Sulmazole], the z.score.t rises from 0.1556 to 0.6376.

First: CC1=C(CC(=O)O)c2cc(F)ccc2/C1=C\c1ccc([S+](C)[O-])cc1 (stereo not shown) [Sulindac]
Second: CC(C(=O)O)c1ccc(C(=O)c2cccs2)cc1 (stereo not shown) [Suprofen]
The z.score.t of the first is lower: −0.2425 for the first, 0.2361 for the second.

First: CCCCCCCCNC(C)C(O)c1ccc(SC(C)C)cc1 (stereo not shown) [Suloctidil]
Second: CC(C)(C)c1ccc(C(O)CCCN2CCC(C(O)(c3ccccc3)c3ccccc3)CC2)cc1 (stereo not shown) [Terfenadine]
The z.score.t of the first is higher: −0.649 for the first, −0.8513 for the second.

First: CCOC(=O)Oc1c(OC)cc(C(=O)O[C@@H]2C[C@@H]3CN4CCc5c([nH]c6cc(OC)ccc56)[C@H]4C[C@@H]3[C@H](C(=O)OC)[C@H]2OC)cc1OC [Syrosingopine]
Second: COc1ccc2cc1Oc1ccc(cc1)C[C@H]1c3cc(c(OC)cc3CCN1C)Oc1c(OC)c(OC)cc3c1[C@H](C2)N(C)CC3 [Tetrandrine]
The z.score.t of the first is lower: −0.4543 for the first, −0.4538 for the second.

First: Nc1c2c(nc3ccccc13)CCCC2 [Tacrine hydrochloride hydrate]
Second: c1ccc2c(c1)CCCC2C1=NCCN1 (stereo not shown) [Tetrahydrozoline hydrochloride]
The z.score.t of the first is lower: −0.7049 for the first, 0.81 for the second.

First: CC1(C)S[C@@H]2[C@H](NC(=O)[C@H](N)c3ccccc3)C(=O)N2[C@H]1C(=O)OC1OC(=O)c2ccccc21 (stereo partly shown) [Talampicillin hydrochloride]
Second: O=C1CCC(N2C(=O)c3ccccc3C2=O)C(=O)N1 (stereo not shown) [Thalidomide]
The z.score.t of the first is higher: −0.8111 for the first, −1.821 for the second.

Compared with Cc1scc2c1N(C(=O)CN1CCN(C)CC1)c1ccccc1NC2=O [Telenzepine dihydrochloride], c1ccc(C2CN3CCSC3=N2)cc1 (stereo not shown) [Tetramisole hydrochloride] is lower in z.score.t: 0.5452 for the first, −0.3319 for the second.

Going from COc1cc2nc(N3CCN(C(=O)C4CCCO4)CC3)nc(N)c2cc1OC (stereo not shown) [Terazosin hydrochloride] to CC(C)N1CCN(c2ccc(OCC3COC(Cn4cncn4)(c4ccc(Cl)cc4Cl)O3)cc2)CC1 (stereo not shown) [Terconazole], the z.score.t falls from 0.2582 to −0.07901.

Going from O.O=C1C(O)=C(O)C(=O)C(O)=C1O [Tetrahydroxy-1,4-quinone monohydrate] to Cn1cnc2c1c(=O)[nH]c(=O)n2C [Theobromine], the z.score.t falls from 1.323 to −1.169.

Compared with Cc1ncc(C[n+]2csc(CCO)c2C)c(N)n1 [Thiamine hydrochloride], O=C(O)CNC(=O)C(CS)Cc1ccccc1 (stereo not shown) [Thiorphan] is higher in z.score.t: −0.865 for the first, 0.563 for the second.

For S=C(NC1CCCCC1)N1CCC(c2cnc[nH]2)CC1 [Thioperamide maleate], the z.score.t was 0.8825.

From patent US20260053861A1, “CELL COMPOSITIONS AND METHODS OF USING THE SAME” (THE REGENTS OF THE UNIVERSITY OF CALIFORNIA, priority 2022, published 2026)
